IC50 data for 42 molecules are collected here from US10668047B2, “Aziridine containing DNA alkylating agents” (priority 2015, dated 2020).

Where two headings read alike, the source gives them in different places.

This experiment concerns H460 non-cell lung cancer human tumor cell line. The experiment is described as follows: In vitro human tumor cell line cytotoxicity (proliferation) assay, AlamarBlue. It counts as cell-based. The procedure: IC50 values are reported in micromolar and result from exposure of compound at various concentrations for 2 hrs followed by a wash step and addition of fresh media followed by growth and cell viability staining and comparison to a media only treated control.
Specifically, exponentially growing cells are seeded at a density of 4×10^3 cells per well in a 96 well plate and incubated at 37° C. in 5% CO2, 95% air and 100% relative humidity for 24 hours prior to addition of test compounds. Compounds are solubilized in 100% DMSO at 200 times the desired final test concentration. At the time of drug addition, compounds are further diluted to 4 times the desired final concentration with complete medium. Aliquots of 50 μl of compound at specified concentrations are added to microtiter wells already containing 150 μl of medium, resulting in the final drug concentration reported. After drug addition, the plates are incubated for an additional 2 hours at 37° C., 5% CO2, 95% air, and 100% relative humidity, then the drug is washed off and fresh medium is added and the plates are incubated for addition 70 hrs at 37° C., 5% CO2, 95% air and 100% relative humidity. At the end of this incubation, the viable cells are quantified using the AlamarBlue assay. The drug concentration resulting in growth inhibition of 50% (IC50) is calculated using Prism software (Irvine, Calif.), and the results are listed in the table.

Setting [1] is: Homo sapiens, NCI-H460, H460 cells, under air, 2 hrs exposure, wash, then 70 hrs growth, read-out: IC50 (air).
[2] abbreviates: Homo sapiens, NCI-H460, H460 cells, under nitrogen, 2 hrs exposure, wash, then 70 hrs growth, read-out: IC50 (N2).
[3] abbreviates: H460 cells, under air, 2 hrs exposure, wash, then 70 hrs growth, read-out: IC50 (air).
Where [4] appears, read: H460 cells, under nitrogen, 2 hrs exposure, wash, then 70 hrs growth, read-out: IC50 (N2).

On to `CC(OP(=O)(N1CC1)N1CC1)c1ccc([N+](=O)[O-])c(O)c1` (stereo not drawn) [compound 2621], for which the half-maximal inhibitory concentration (IC50) under setting [1] amounted to 39 µM and the half-inhibitory concentration (IC50) under setting [2] is 0.3 µM.

As to `CC(C)C(OP(=O)(N1CC1)N1CC1)c1nc(Br)c([N+](=O)[O-])n1C` (stereo not drawn) [compound 2624], the IC50 is, setting by setting: under setting [1], 160 µM; under setting [2], 0.5 µM.

On to `O=[N+]([O-])c1ccc(COP(=O)(N2CC2)N2CC2)c(-c2ccccc2)c1` [compound 2626], for which the IC50 was determined as 3.3 µM under setting [1] and 0.6 µM under setting [2].

In the case of `CC(C)n1c([N+](=O)[O-])cnc1COP(=O)(N1CC1)N1CC1` [compound 2627], the IC50 under setting [1] is 32 µM and the half-inhibitory concentration (IC50) under setting [2] worked out at 0.5 µM.

`Cn1c([N+](=O)[O-])cnc1C(OP(=O)(N1CC1)N1CC1)C1CCCCC1` (stereo not drawn) [compound 2633]: the IC50 is, setting by setting: under setting [1], 83 µM; under setting [2], 0.3 µM.

As for `O=[N+]([O-])c1cnc(COP(=O)(N2CC2)N2CC2)n1C1CCCC1` [compound 2635], the IC50 was found to be 13 µM under setting [1] and 0.22 µM under setting [2].

As for `COc1cccc([N+](=O)[O-])c1COP(=O)(N1CC1)N1CC1` [compound 2637], the IC50 by setting is: under setting [1], 23 µM; under setting [2], 0.8 µM.

`Cn1c([N+](=O)[O-])cnc1C(OP(=O)(N1CC1)N1CC1)C(c1ccccc1)c1ccccc1` (stereo not drawn) [compound 2640]: the IC50 runs as follows: under setting [1], 83 µM; under setting [2], 1.1 µM.

For `CC(C)C(OP(=O)(N1CC1)N1CC1)c1ncc([N+](=O)[O-])n1CCOC(C)(C)C` (stereo not drawn) [compound 2643], the concentration for half-maximal inhibition (IC50) worked out at 37 µM under setting [1] and 0.6 µM under setting [2].

Regarding `CCCCC(CCCC)C(OP(=O)(N1CC1)N1CC1)c1ncc([N+](=O)[O-])n1C` (stereo not drawn) [compound 2645], the IC50 under setting [1] stood at 30 µM and the half-maximal inhibitory concentration (IC50) under setting [2] was 1.6 µM.

`O=[N+]([O-])c1ccc2c(c1)CCC2OP(=O)(N1CC1)N1CC1` (stereo not drawn) [compound 2652]: the IC50 reads like this: under setting [1], 2.2 µM; under setting [2], 0.02 µM.

As to `Cn1c([N+](=O)[O-])cnc1C(CO)OP(=O)(C1CC1)N1CC1` (stereo not drawn) [compound 2654], the IC50 under setting [1] is above 500 µM and the 50% inhibitory concentration (IC50) under setting [2] amounted to 260 µM.

For `O=[N+]([O-])c1ncn(-c2ccc(C(F)(F)F)cc2)c1COP(=O)(N1CC1)N1CC1` [compound 2656], the half-maximal inhibitory concentration (IC50) worked out at 2.4 µM under setting [1] and 0.1 µM under setting [2].

`CC(C)C(OP(=O)(N1CC1)N1CC1)c1ncc([N+](=O)[O-])n1CCO` (stereo not drawn) [compound 2658]: the IC50 runs as follows: under setting [1], 86 µM; under setting [2], 0.3 µM.

In the case of `CCC(OP(=O)(N1CC1)N1CC1)c1ncc([N+](=O)[O-])n1C` (stereo not drawn) [compound 2662], the IC50 is 22 µM under setting [1] and 0.03 µM under setting [2].

`O=[N+]([O-])c1ccc(COP(=O)(N2CC2)N2CC2)cc1F` [compound 2666]: the IC50 is 24 µM under setting [1] and 2 µM under setting [2].

Regarding `Cc1cc(C(C)OP(=O)(N2CC2)N2CC2)ccc1[N+](=O)[O-]` (stereo not drawn) [compound 2672], the IC50 is 180 µM under setting [1] and 3.1 µM under setting [2].

`O=[N+]([O-])c1ccc2c(c1)CCCC2OP(=O)(N1CC1)N1CC1` (stereo not drawn) [compound 2675]: the IC50 under setting [1] stood at 3.4 µM and the IC50 under setting [2] is 0.05 µM.

Take `O=[N+]([O-])c1ccc2c(c1)CCCC2OP(=O)(N1CC1)N1CC1` (stereo not drawn) [compound 2676]: the IC50 runs as follows: under setting [3], 3.7 µM; under setting [4], 0.1 µM.

`CC(OP(=O)(N1CC1)N1CC1)c1ccc([N+](=O)[O-])c(F)c1` (stereo not drawn) [compound 2678]: the concentration for half-maximal inhibition (IC50) by setting is: under setting [1], 32 µM; under setting [2], 0.4 µM.

As for `CNc1cc(C(C)OP(=O)(N2CC2)N2CC2)ccc1[N+](=O)[O-]` (stereo not drawn) [compound 2679], the IC50 turned out to be 34 µM under setting [1] and 2.9 µM under setting [2].

Consider `CC(OP(=O)(N1CC1)N1CC1)c1ccc([N+](=O)[O-])c(N(C)C)c1` (stereo not drawn) [compound 2680], for which the half-maximal inhibitory concentration (IC50) runs as follows: under setting [1], 110 µM; under setting [2], 2.6 µM.

Turning to `CCC(OP(=O)(N1CC1)N1CC1)c1ccc([N+](=O)[O-])cc1` (stereo not drawn) [compound 2681], the half-inhibitory concentration (IC50) reads like this: under setting [1], 28 µM; under setting [2], 0.3 µM.

On to `CC(=O)OCC(OP(=O)(N1CC1)N1CC1)c1ccc([N+](=O)[O-])cc1` (stereo not drawn) [compound 2686], for which the IC50 under setting [1] amounted to 79 µM and the IC50 under setting [2] was 3.1 µM.

As to `CC(OP(=O)(N1CC1)N1CC1)c1ccc([N+](=O)[O-])c(NC2CC2)c1` (stereo not drawn) [compound 2687], the IC50 runs as follows: under setting [1], 15 µM; under setting [2], 2.2 µM.

As for `C=CCC(OP(=O)(N1CC1)N1CC1)c1ccc([N+](=O)[O-])cc1` (stereo not drawn) [compound 2689], the IC50 runs as follows: under setting [1], 43 µM; under setting [2], 0.6 µM.

For the molecule `O=[N+]([O-])c1ccc(C(CC(F)(F)F)OP(=O)(N2CC2)N2CC2)cc1` (stereo not drawn) [compound 2690], the 50% inhibitory concentration (IC50) by setting is: under setting [1], 99 µM; under setting [2], 3.2 µM.

Regarding `CC(OP(=O)(N1CC1)N1CC1)c1ccc([N+](=O)[O-])c(N=[N+]=[N-])c1` (stereo not drawn) [compound 2691], the IC50 under setting [1] worked out at 2.3 µM and the concentration for half-maximal inhibition (IC50) under setting [2] stood at 2.3 µM.

As for `CC(OP(=O)(N1CC1)N1CC1)c1ccc([N+](=O)[O-])c(N)c1` (stereo not drawn) [compound 2692], the 50% inhibitory concentration (IC50) by setting is: under setting [1], 6.2 µM; under setting [2], 2.7 µM.

For the molecule `CC(OP(=O)(N1CC1)N1CC1)c1ccc([N+](=O)[O-])c(Nc2ccccc2)c1` (stereo not drawn) [compound 2693], the half-maximal inhibitory concentration (IC50) reads like this: under setting [1], 1.9 µM; under setting [2], 0.4 µM.

`CC(OP(=O)(N1CC1)N1CC1)c1ccc([N+](=O)[O-])c(N2CCOCC2)c1` (stereo not drawn) [compound 2695]: the concentration for half-maximal inhibition (IC50) under setting [1] came to 130 µM and the IC50 under setting [2] turned out to be 4.2 µM.

Regarding `CC(OP(=O)(N1CC1)N1CC1)c1ccc([N+](=O)[O-])c(N2CCCCC2)c1` (stereo not drawn) [compound 2696], the IC50 amounted to 310 µM under setting [1] and 7.4 µM under setting [2].

Consider `CC(OP(=O)(N1CC1)N1CC1)c1ccc([N+](=O)[O-])c(Nc2ccc([N+](=O)[O-])cc2)c1` (stereo not drawn) [compound 2697], for which the half-maximal inhibitory concentration (IC50) by setting is: (Homo sapiens, NCI-H460, read-out: IC50 (N2), H460 cells, under nitrogen, 2 hrs exposure, wash, then 70 hrs growth) 0.5 µM; (Homo sapiens, NCI-H460, read-out: IC50 (air), H460 cells, under air, 2 hrs exposure, wash, then 70 hrs growth) 1.5 µM.

Take `CC(OP(=O)(N1CC1)N1CC1)c1ccc([N+](=O)[O-])c(OCC(F)(F)F)c1` (stereo not drawn) [compound 2698]: the half-maximal inhibitory concentration (IC50) reads like this: under setting [1], 3.7 µM; under setting [2], 1.6 µM.

Turning to `CC(OP(=O)(N1CC1)N1CC1)c1ccc([N+](=O)[O-])c(S(C)(=O)=O)c1` (stereo not drawn) [compound 2700], the IC50 reads like this: under setting [1], 370 µM; under setting [2], 350 µM.

`CCN(CC)c1cc(C(C)OP(=O)(N2CC2)N2CC2)ccc1[N+](=O)[O-]` (stereo not drawn) [compound 2701]: the 50% inhibitory concentration (IC50) by setting is: under setting [1], 66 µM; under setting [2], 1.3 µM.

`CC(OP(=O)(N1CC1)N1CC1)c1ccc([N+](=O)[O-])c(N2CCN(C)CC2)c1` (stereo not drawn) [compound 2702]: the IC50 stood at 47 µM under setting [1] and 0.8 µM under setting [2].

With `CC(OP(=O)(N1CC1)N1CC1)c1ccc([N+](=O)[O-])c(-n2ccnc2)c1` (stereo not drawn) [compound 2703], the concentration for half-maximal inhibition (IC50) is, setting by setting: under setting [3], 99 µM; under setting [4], 0.2 µM.

`CC(OP(=O)(N1CC1)N1CC1)c1ccc([N+](=O)[O-])cc1F` (stereo not drawn) [compound 2706]: the concentration for half-maximal inhibition (IC50) stood at 14 µM under setting [1] and 0.03 µM under setting [2].

As to `CC(OP(=O)(N1CC1)N1CC1)c1ccc([N+](=O)[O-])c(N(C)O)c1` (stereo not drawn) [compound 2707], the 50% inhibitory concentration (IC50) by setting is: under setting [1], 0.2 µM; under setting [2], 0.1 µM.

Turning to `CC(OP(=O)(N1CC1)N1CC1)c1ccc([N+](=O)[O-])c(N2CCCC2)c1` (stereo not drawn) [compound 2708], the IC50 by setting is: under setting [1], 20 µM; under setting [2], 3 µM.

As for `CC(OP(=O)(N1CC1)N1CC1)c1ccc([N+](=O)[O-])c(N2CCC3(CC2)OCCO3)c1` (stereo not drawn) [compound 2709], the IC50 under setting [1] turned out to be 26 µM and the IC50 under setting [2] was 2.4 µM.
